The values that follow come from patent US20230131899A1, “INHIBITORS OF MICROBIALLY INDUCED AMYLOID” (Axial Therapeutics, Inc., priority 2020, published 2023).

One may read the inhibition as the percentage by which the read-out fell short of the control. What is called IC50 is the concentration that gives 50% inhibition.

Read-outs that look alike come from different tables or passages of the source.

One assay addresses T1, human α-synuclein (Homo sapiens, UniProt P37840).
T1 construct: the full-length gene for untagged human α-synuclein was inserted; made in house; host or cells: E. coli BL21(DE3), plasmid derived from pT7 or pET11a
Briefly: Cell-free Thioflavin T assay of α-synuclein aggregation (αSyn ThT Assay). Particulars: αSyn 50 μM, compounds at 100 μM. In kind it is biochemical. The method, then:
To assess the effects of compounds on aggregation of α-synuclein, a cell-free assay was performed using purified α-synuclein and Thioflavin T. In the assay, human α-synuclein was expressed in E. coli BL21(DE3) from a plasmid derived from pT7 or pET11a into which the full-length gene for untagged human α-synuclein was inserted. Cells were induced at OD600 0.6 with 0.8 mM IPTG for 4 hours, harvested by centrifugation and suspended in a volume of lysis buffer (10 mM Tris, pH 8.0, 1 mM EDTA, and 1 mM PMSF) equivalent to one-tenth the volume of culture and lysed by boiling for 20 minutes. Cell debris was pelleted by centrifugation, clarified lysate was treated with 10% streptomycin sulfate at 136 μL/mL followed by glacial acetic acid at 228 μL/mL, lysate was centrifuged, supernatant was transferred to a fresh tube and protein was precipitated via addition of an equal volume of saturated (100%) ammonium sulfate and incubated at 4° C. on a rocking shaker for 1 hour. The protein was pelleted via centrifugation and washed with an equal volume of 100 mM ammonium acetate in chilled ethanol, pelleted via centrifugation, washed twice with chilled ethanol, dried overnight, resuspended in 50 mM potassium phosphate buffer pH 7.3 or 10 mM Tris pH 7.4, and passed through a 50 kDa cut-off column. Immediately prior to use, the purified α-synuclein was filtered with a 0.2 μm nylon filter. The assay was conducted in 96-well black microplates with a single 1-2 mm glass bead in each well, 20-40 μM ThioflavinT, 1% DMSO, α-synuclein at 50 μM and compounds at 20-100 μM. Plates were sealed with sealing tape (ThermoFisher 232701), incubated at 37° C. in a Tecan Nano F200 plate reader with excitation at 438 nm using a 439 nm filter with a bandwidth of 8 nm, and emission at 495 nm with a 490 nm filter with a bandwidth of 10 nm. During the assay, plates were shaken continuously or were shaken for 999 seconds every 18 minutes. Readings were performed hourly for up to 73 hours. The effect of compounds on α-synuclein aggregation in the assay was determined with data at 36, 47, 48 or 72 hours or from the final timepoint of the assay, prior to or roughly near the time when ThT fluorescence plateaued in the vehicle control wells. The vehicle controls contained all components of the assay except compounds and represented the level of α-synuclein aggregation in the absence of an inhibitor or accelerator. Fluorescence values for each compound with α-synuclein were first adjusted by subtracting the average fluorescence of the compound in the absence of α-synuclein. These adjusted values were normalized by dividing them by the average fluorescence at the same timepoint in the vehicle control wells, and the average normalized fluorescence with the compound was expressed as a percentage of the average fluorescence observed in untreated controls. Percent inhibition of α-synuclein aggregation by a compound was determined by subtracting the percent average fluorescence with the compound relative to the average vehicle control from 100%. A higher positive percent inhibition reflects greater inhibition of α-synuclein aggregation, while a negative percent inhibition reflects potentiation of α-synuclein aggregation.
Alternate concentrations of Thioflavin T may be used in the assay and may affect the fluorescent signal and sensitivity of the assay. Alternate concentrations of α-synuclein may be used and such alterations may affect aggregation kinetics of α-synuclein in the assay. Alternate concentrations of compounds may be tested in the assay, and dose-responses may be evaluated. Additional reagents may be added to the assay which may affect aggregation kinetics of α-synuclein depending on their concentration, including detergents such as sodium dodecyl sulfate, sodium chloride, dithiotreitol, or bovine serum albumin. Shaking may be included at alternate intervals in the assay and may affect α-synuclein aggregation kinetics. […]

For assay [1], the system named is CsgA gene expression (csgBAC promoter-GFP reporter) in E. coli UTI89. Briefly: In vitro live cell fluorescent reporter assay of CsgA transcription (Reporter Assay). In kind it is cell-based. Conditions: Escherichia coli. The essentials:
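Compounds at 0.14–100 μM (1% DMSO final) incubated 20 h at 27 °C in YESCA broth with UTI89 carrying a single-copy GFP reporter under the csgBAC intergenic promoter region, inoculum OD600 0.003. Fluorescence normalized to vehicle wells gave IC50 and 50%-of-vehicle concentration; OD600 reduction >10% flagged growth impact.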
(In general: Reporter assays use an easily measured gene product as a stand-in for the process of interest.)

In the next assay the target is T2, E. coli CsgA (Escherichia coli, UniProt P28307).
T2 construct: made in house; host or cells: E. coli NEB 3016 slyD::kan, pET11d
Put plainly: In vitro ThioflavinT assay of CsgA aggregation (CsgA ThT Assay). Conditions: CsgA 2 μM, white plates; for remaining activity at 25 µM: compound 25 μM; for remaining activity at 100 µM: compound 100 μM. In kind it is biochemical. In a few lines:
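Purified C-terminal His-tagged CsgA, monomerised by desalting and 30-kDa filtration, at 2-20 μM with 20-40 μM ThT in 50 mM potassium phosphate pH 7.3, 1% DMSO, compounds 3.125-200 uM; room temperature, fluorescence (ex 438/em 495 nm) read every 15 min. Background-subtracted signal expressed as percent inhibition versus vehicle at 6-6.5 or 8-9 h, or as percent control AUC.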

Where [2] appears, read: mean % inhibition of αSyn aggregation relative to DMSO control, read-out: αSyn ThT Assay % Inhibition.
Where [3] appears, read: class symbol, read-out: αSyn ThT Assay % Inhibition (activity range).
[4] abbreviates: read-out: Reporter Assay Abs IC50 (μM), median Abs IC50 in the CsgA reporter assay, N/A = maximum expression reduction is <50% of control.
Where [5] appears, read: read-out: Reporter Assay Abs IC50, activity range, class symbol.
[6] abbreviates: read-out: CsgA ThT Assay (2 μM CsgA) % Control Bmax 25 μM, activity range, class symbol.
[7] abbreviates: read-out: CsgA ThT Assay (2 μM CsgA) % Control Bmax 25 μM, mean Bmax as percentage of DMSO control.
The mark [8] stands for this setting: read-out: CsgA ThT Assay (2 μM CsgA) % Control Bmax 100 μM, activity range, class symbol.
Where [9] appears, read: read-out: CsgA ThT Assay (2 μM CsgA) % Control Bmax 100 μM, mean Bmax as percentage of DMSO control.

T2 sequence (P28307 23-151): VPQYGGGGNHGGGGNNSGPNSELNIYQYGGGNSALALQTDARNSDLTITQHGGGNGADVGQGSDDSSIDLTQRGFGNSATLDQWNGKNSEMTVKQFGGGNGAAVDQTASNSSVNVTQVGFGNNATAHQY

For `O=C(O)C1CNS(=O)(=O)c2c(-c3cccc(C(F)(F)F)c3)c(Cc3cccc4ccccc34)cc(=O)n21` (racemic) [Compound 009, 8-(naphthalen-1-ylmethyl)-6-oxo-9-(3-(trifluoromethyl)phenyl)-3,4-dihydro-2H,6H-pyrido[1,2-e][1,2,5]thiadiazine-4-carboxylic acid 1,1-dioxide], the inhibition at 100 µM at human α-synuclein (setting [2]) is 28%; at human α-synuclein (setting [3]), 11 to 30%.
On the same counts, the results for `O=C(O)C1CS(=O)(=O)c2c(-c3cccc(C(F)(F)F)c3)c(Cc3cccc4ccccc34)cc(=O)n21` (racemic) [Compound 010, 7-(naphthalen-1-ylmethyl)-5-oxo-8-(3-(trifluoromethyl)phenyl)-2,3-dihydro-5H-thiazolo[3,2-a]pyridine-3-carboxylic acid 1,1-dioxide] are 13% and 11 to 30%.
The corresponding values for `O=C(O)C1CS(=O)(=O)c2c(-c3cccc(C(F)(F)F)c3)c(Cc3cccc4ccccc34)cc(=S)n21` (racemic) [Compound 014, 7-(naphthalen-1-ylmethyl)-5-thioxo-8-(3-(trifluoromethyl)phenyl)-2,3-dihydro-5H-thiazolo[3,2-a]pyridine-3-carboxylic acid 1,1-dioxide] are 35% and 31 to 60%.
Regarding `O=C(O)c1c(Cc2cccc3ccccc23)c(-c2cccc(C(F)(F)F)c2)c2n(c1=O)C(C(=O)O)CN2Cc1ccccc1` (stereo not shown) [Compound 209, 1-benzyl-7-(naphthalen-1-ylmethyl)-5-oxo-8-(3-(trifluoromethyl)phenyl)-1,2,3,5-tetrahydroimidazo[1,2-a]pyridine-3,6-dicarboxylic acid], the values for the IC50 in assay [1] (setting [4]) and in assay [1] (setting [5]) were 6.6 µM and 4.6 to 10 µM, respectively. Besides, the remaining activity at 25 µM is over 60% on E. coli CsgA (setting [6]) and 81% at E. coli CsgA (setting [7]). For the same molecule, the remaining activity at 100 µM at E. coli CsgA (setting [8]) is over 60%; at E. coli CsgA (setting [9]), 64%.
`O=C(O)C1CN(Cc2ccccc2)c2c(-c3cccc(C(F)(F)F)c3)c(Cc3cncc4ccccc34)c(Cl)c(=O)n21` (stereo not shown) [Compound 210, 1-benzyl-6-chloro-7-(isoquinolin-4-ylmethyl)-5-oxo-8-(3-(trifluoromethyl)phenyl)-1,2,3,5-tetrahydroimidazo[1,2-a]pyridine-3-carboxylic acid]: the IC50 in assay [1] (setting [4]) is 2.5 µM; in assay [1] (setting [5]), 1.3 to 4.5 µM. Besides, the remaining activity at 25 µM on E. coli CsgA (setting [6]) was over 60%; at E. coli CsgA (setting [7]), 79%. Moreover, the remaining activity at 100 µM is over 60% at E. coli CsgA (setting [8]) and 61% on E. coli CsgA (setting [9]).
For the molecule `O=C(O)C1CN(Cc2ccccc2)c2c(-c3cccc(C(F)(F)F)c3)c(Cc3cccc4ncccc34)c(Cl)c(=O)n21` (stereo not shown) [Compound 211, 1-benzyl-6-chloro-5-oxo-7-(quinolin-5-ylmethyl)-8-(3-(trifluoromethyl)phenyl)-1,2,3,5-tetrahydroimidazo[1,2-a]pyridine-3-carboxylic acid], the IC50 was 20.6 µM in assay [1] (setting [4]) and over 10 µM in assay [1] (setting [5]). For the same molecule, the remaining activity at 25 µM is over 60% at E. coli CsgA (setting [6]) and 85% at E. coli CsgA (setting [7]). Also, the remaining activity at 100 µM on E. coli CsgA (setting [8]) was over 60%; at E. coli CsgA (setting [9]), 65%.
Take `O=C(O)C1CN(Cc2ccccc2)c2c(-c3cccc(C(F)(F)F)c3)c(Cc3cccc4cnccc34)c(Cl)c(=O)n21` (stereo not shown) [Compound 212, 1-benzyl-6-chloro-7-(isoquinolin-5-ylmethyl)-5-oxo-8-(3-(trifluoromethyl)phenyl)-1,2,3,5-tetrahydroimidazo[1,2-a]pyridine-3-carboxylic acid]: the figures for the IC50 in assay [1] (setting [4]) and in assay [1] (setting [5]) were 13 µM and over 10 µM, respectively. The remaining activity at 25 µM was over 60% on E. coli CsgA (setting [6]) and 64% at E. coli CsgA (setting [7]). Further, the remaining activity at 100 µM was 31 to 60% at E. coli CsgA (setting [8]) and 56% on E. coli CsgA (setting [9]).
As for `O=C(O)C1CN(Cc2ccccc2)c2c(-c3cccc(C(F)(F)F)c3)c(Cc3cccc4cccnc34)c(Cl)c(=O)n21` (stereo not shown) [Compound 213, 1-benzyl-6-chloro-5-oxo-7-(quinolin-8-ylmethyl)-8-(3-(trifluoromethyl)phenyl)-1,2,3,5-tetrahydroimidazo[1,2-a]pyridine-3-carboxylic acid], the results for the IC50 in assay [1] (setting [4]) and in assay [1] (setting [5]) were 9.1 µM and 4.6 to 10 µM, respectively. The remaining activity at 25 µM at E. coli CsgA (setting [6]) is over 60%; on E. coli CsgA (setting [7]), 72%. The values for the remaining activity at 100 µM at E. coli CsgA (setting [8]) and on E. coli CsgA (setting [9]) were 31 to 60% and 44%, respectively.
As to `O=C(O)C1CN(Cc2ccccc2)c2c(-c3cccc(C(F)(F)F)c3)c(Cc3ccccc3)c(Cl)c(=O)n21` (stereo not shown) [Compound 214, 1,7-dibenzyl-6-chloro-5-oxo-8-(3-(trifluoromethyl)phenyl)-1,2,3,5-tetrahydroimidazo[1,2-a]pyridine-3-carboxylic acid], the IC50 in assay [1] (setting [4]) is 1.8 µM; in assay [1] (setting [5]), 1.3 to 4.5 µM. Moreover, the figures for the remaining activity at 25 µM on E. coli CsgA (setting [6]) and at E. coli CsgA (setting [7]) were over 60% and 90%, respectively. In addition, the figures for the remaining activity at 100 µM on E. coli CsgA (setting [8]) and on E. coli CsgA (setting [9]) were over 60% and 84%, respectively.
Take `CC(C)(C)c1cccc(Cc2c(-c3cccc(C(F)(F)F)c3)c3n(c(=O)c2Cl)C(C(=O)O)CN3Cc2ccccc2)c1` (stereo not shown) [Compound 215, 1-benzyl-7-(3-(tert-butyl)benzyl)-6-chloro-5-oxo-8-(3-(trifluoromethyl)phenyl)-1,2,3,5-tetrahydroimidazo[1,2-a]pyridine-3-carboxylic acid]: the IC50 in assay [1] (setting [4]) is 1.3 µM; in assay [1] (setting [5]), 1.3 to 4.5 µM. Also, the remaining activity at 25 µM at E. coli CsgA (setting [6]) was over 60%; at E. coli CsgA (setting [7]) it was 97%. Moreover, the remaining activity at 100 µM was over 60% on E. coli CsgA (setting [8]) and 61% on E. coli CsgA (setting [9]).
`O=C(O)C1CN(Cc2ccccc2)c2c(-c3cccc(C(F)(F)F)c3)c(CN3CCCc4ccccc43)c(Cl)c(=O)n21` (stereo not shown) [Compound 217, 1-benzyl-6-chloro-7-((3,4-dihydroquinolin-1 (2H)-yl)methyl)-5-oxo-8-(3-(trifluoromethyl)phenyl)-1,2,3,5-tetrahydroimidazo[1,2-a]pyridine-3-carboxylic acid]: the IC50 was 1.1 µM in assay [1] (setting [4]) and under 1.3 µM in assay [1] (setting [5]). The remaining activity at 25 µM at E. coli CsgA (setting [6]) is over 60%; at E. coli CsgA (setting [7]), 65%.
